# Reference: ChEMBL document CHEMBL1158274, “Antibacterial neoclerodane diterpenoids from Ajuga lupulina” (1996)
# Activity calls are given as the source filed them. The calls are words filed in the database; no cut-off is given here.
# Legend:
# Format in all cases: functional
# Staphylococcus aureus = assay: Antibacterial activity against Staphylococcus aureus by paper disk diffusion method
# Escherichia coli = assay: Antibacterial activity against Escherichia coli by paper disk diffusion method
# Pseudomonas aeruginosa = assay: Antibacterial activity against Pseudomonas aeruginosa NJ94 by paper disk diffusion method
Structure (SMILES),inhibition zone (IZ) (Staphylococcus aureus) [mm],inhibition zone (IZ) (Escherichia coli) [mm],inhibition zone (IZ) (Pseudomonas aeruginosa) [mm],Activity (Staphylococcus aureus),Activity (Escherichia coli),Activity (Pseudomonas aeruginosa)
CC[C@@H](C)C(=O)O[C@H]1[C@H](O)C[C@@H]2[C@@](C)([C@@H]3C[C@H]4C[C@@H](OC)O[C@H]4O3)[C@H](C)C[C@H](OC(C)=O)[C@@]2(COC(C)=O)[C@@]12CO2 [LUPULIN A],1.5,3,3,–,–,–
CO[C@H]1C[C@@H]2C[C@@H]([C@@]3(C)[C@H](C)C[C@H](OC(C)=O)[C@]4(COC(C)=O)[C@@H]3CCC[C@]43CO3)O[C@@H]2O1,–,–,–,inactive,inactive,inactive
CC[C@@H](C)C(=O)O[C@H]1CC[C@@H]2[C@@](C)([C@@H]3C[C@H]4C[C@H](OC)O[C@H]4O3)[C@H](C)C[C@H](OC(C)=O)[C@@]2(COC(C)=O)[C@@]12CO2 [LUPULIN B],1.2,1.2,–,–,–,inactive
CC(=O)OC[C@@]12[C@@H](OC(C)=O)C[C@@H](C)[C@](C)([C@@H]3C[C@H]4C[C@H](O)O[C@H]4O3)[C@H]1CCC[C@]21CO1,1.2,1.2,–,–,–,inactive
